Molecular target: T1, PIKFYVE (Homo sapiens, UniProt Q9Y2I7)
T1 construct: purchased Eurofins (KINOMEscan); host or cells: E. coli BL21-derived (T7 phage display) or HEK-293
Experiment: KINOMEscan Kinase Assay (Eurofins), PIKFYVE inhibitory activity
Type: binding
Conditions: for IC50: KINOMEscan; for inhibition at 0.05 µM: @ 50 nM; for inhibition at 0.005 µM: @ 5 nM; for inhibition at 0.003 µM: @ 3 nM

T1 sequence (Q9Y2I7 whole entry): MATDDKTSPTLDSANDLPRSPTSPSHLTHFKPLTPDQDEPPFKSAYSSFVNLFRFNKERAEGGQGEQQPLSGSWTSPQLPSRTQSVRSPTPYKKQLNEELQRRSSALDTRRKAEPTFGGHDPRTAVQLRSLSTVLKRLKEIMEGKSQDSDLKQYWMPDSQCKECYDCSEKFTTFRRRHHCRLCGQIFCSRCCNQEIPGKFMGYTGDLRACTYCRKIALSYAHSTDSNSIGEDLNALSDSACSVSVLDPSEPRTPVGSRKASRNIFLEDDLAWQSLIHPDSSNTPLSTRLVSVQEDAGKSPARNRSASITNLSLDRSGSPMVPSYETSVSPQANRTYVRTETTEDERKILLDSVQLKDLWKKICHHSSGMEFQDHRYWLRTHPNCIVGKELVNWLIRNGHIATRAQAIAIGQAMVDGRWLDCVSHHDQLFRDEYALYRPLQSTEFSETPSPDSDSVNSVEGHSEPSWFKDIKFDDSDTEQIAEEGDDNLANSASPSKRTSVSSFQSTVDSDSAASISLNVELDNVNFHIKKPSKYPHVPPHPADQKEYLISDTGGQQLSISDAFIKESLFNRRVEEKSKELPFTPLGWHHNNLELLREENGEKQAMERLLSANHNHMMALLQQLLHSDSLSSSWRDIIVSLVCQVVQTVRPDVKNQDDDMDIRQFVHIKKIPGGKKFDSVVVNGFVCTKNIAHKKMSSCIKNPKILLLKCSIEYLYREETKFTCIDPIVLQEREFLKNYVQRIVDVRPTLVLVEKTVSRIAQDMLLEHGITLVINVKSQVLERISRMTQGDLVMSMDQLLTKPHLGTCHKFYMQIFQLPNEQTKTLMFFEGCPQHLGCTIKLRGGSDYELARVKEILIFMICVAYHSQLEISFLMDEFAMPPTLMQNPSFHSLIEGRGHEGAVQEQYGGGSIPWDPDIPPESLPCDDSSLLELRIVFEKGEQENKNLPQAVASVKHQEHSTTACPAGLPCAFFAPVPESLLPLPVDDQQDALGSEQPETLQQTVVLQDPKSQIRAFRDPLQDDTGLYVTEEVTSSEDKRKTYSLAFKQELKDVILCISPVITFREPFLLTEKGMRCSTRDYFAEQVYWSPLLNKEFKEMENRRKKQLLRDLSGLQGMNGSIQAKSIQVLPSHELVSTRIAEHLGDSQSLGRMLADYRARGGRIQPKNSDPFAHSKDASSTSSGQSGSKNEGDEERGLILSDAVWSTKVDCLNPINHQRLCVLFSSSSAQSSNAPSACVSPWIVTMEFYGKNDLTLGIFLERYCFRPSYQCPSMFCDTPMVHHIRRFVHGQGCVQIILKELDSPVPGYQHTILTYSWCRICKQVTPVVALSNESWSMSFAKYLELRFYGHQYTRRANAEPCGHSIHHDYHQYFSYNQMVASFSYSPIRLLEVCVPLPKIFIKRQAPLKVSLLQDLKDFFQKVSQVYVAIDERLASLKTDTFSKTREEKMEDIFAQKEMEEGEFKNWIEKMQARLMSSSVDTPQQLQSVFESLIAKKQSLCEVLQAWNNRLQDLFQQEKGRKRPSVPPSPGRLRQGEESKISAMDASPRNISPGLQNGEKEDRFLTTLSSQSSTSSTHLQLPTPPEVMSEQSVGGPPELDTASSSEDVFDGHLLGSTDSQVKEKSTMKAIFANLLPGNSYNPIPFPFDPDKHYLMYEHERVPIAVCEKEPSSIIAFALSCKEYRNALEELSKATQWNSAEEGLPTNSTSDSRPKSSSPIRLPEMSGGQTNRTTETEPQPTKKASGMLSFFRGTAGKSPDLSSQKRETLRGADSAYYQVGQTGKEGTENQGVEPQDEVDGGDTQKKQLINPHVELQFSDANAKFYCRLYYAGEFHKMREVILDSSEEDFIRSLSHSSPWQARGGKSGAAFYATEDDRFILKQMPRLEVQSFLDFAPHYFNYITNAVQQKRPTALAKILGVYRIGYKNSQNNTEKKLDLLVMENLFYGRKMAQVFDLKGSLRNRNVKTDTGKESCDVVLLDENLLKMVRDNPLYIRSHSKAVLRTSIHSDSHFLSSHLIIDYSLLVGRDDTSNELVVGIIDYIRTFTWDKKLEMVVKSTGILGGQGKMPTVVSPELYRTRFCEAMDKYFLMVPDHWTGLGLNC

SMILES | IC50 | also measured
Cc1cccc(-c2ccn(-c3nc(N4CCOCC4)c4sc(CN5CC[C@@H](N(C)C)C5)cc4n3)n2)c1 [Ex. 18, (R)—N,N-dimethyl-1-((4-morpholino-2-(3-(m-tolyl)-1H-pyrazol-1-yl)thieno[3,2-d]pyrimidin-6-yl)methyl)pyrrolidin-3-amine] | < 1 nM | –
Cc1cccc(-c2ccn(-c3nc(N4CCOCC4)c4sc(CN5CCC(C(C)(C)O)CC5)cc4n3)n2)c1 [Ex. 5, 2-(1-((4-morpholino-2-(3-(m-tolyl)-1H-pyrazol-1-yl)thieno[3,2-d]pyrimidin-6-yl)methyl)piperidin-4-yl)propan-2-ol] | – | inhibition at 0.05 µM: 100%
Brc1ccn(-c2cc(N3CCOCC3)c3sc(CN4CCOCC4)cc3n2)n1 [Ex. 173, 4-(5-(3-Bromo-1H-pyrazol-1-yl)-2-(morpholinomethyl)thieno[3,2-b]pyridin-7-yl)morpholine] | – | inhibition at 0.005 µM: 8%
Cc1cccc(-c2ccn(-c3nc(N4CCOCC4)c4sc(CN5CCN(S(C)(=O)=O)CC5)c(C)c4n3)n2)c1 [Ex. 54, 4-(7-methyl-6-((4-(methylsulfonyl)piperazin-1-yl)methyl)-2-(3-(m-tolyl)-1H-pyrazol-1-yl)thieno[3,2-d]pyrimidin-4-yl)morpholine] | < 1 nM | –
Cc1cccc(-c2ccn(-c3nc(N4CCOCC4)c4nc(CN5CCN(S(C)(=O)=O)CC5)n(C)c4n3)n2)c1 [Ex. 57, 4-(9-methyl-8-((4-(methylsulfonyl)piperazin-1-yl)methyl)-2-(3-(m-tolyl)-1H-pyrazol-1-yl)-9H-purin-6-yl)morpholine] | 1 to 10 nM | –
Cc1cccc(-c2ccn(-c3nc(N4CCOCC4)c4sc(C(=O)N5CC[C@@H](N(C)C)C5)cc4n3)n2)c1 [Ex. 21, (R)-(3-(dimethylamino)pyrrolidin-1-yl)(4-morpholino-2-(3-(m-tolyl)-1H-pyrazol-1-yl)thieno[3,2-d]pyrimidin-6-yl)methanone] | < 1 nM | –
Cc1cccc(-c2ccn(-c3nc(N4CCOCC4)c4sc(C(=O)N5CCC(C(C)(C)O)CC5)cc4n3)n2)c1 [Ex. 22, (4-(2-hydroxypropan-2-yl)piperidin-1-yl)(4-morpholino-2-(3-(m-tolyl)-1H-pyrazol-1-yl)thieno[3,2-d]pyrimidin-6-yl)methanone] | < 1 nM | –
Cc1cccc(-c2ccn(-c3nc(N4CCOCC4)c4sc(CN5CCN(C)CC5)cc4n3)n2)c1 [Ex. 31, 4-(6-((4-methylpiperazin-1-yl)methyl)-2-(3-(m-tolyl)-1H-pyrazol-1-yl)thieno[3,2-d]pyrimidin-4-yl)morpholine] | 1 to 10 nM | –
Cc1cccc(-c2ccn(-c3cc(N4CCOCC4)c4nc(CN5CCN(C)CC5)[nH]c4n3)n2)c1 [Ex. 39, 4-(2-((4-methylpiperazin-1-yl)methyl)-5-(3-(m-tolyl)-1H-pyrazol-1-yl)-3H-imidazo[4,5-b]pyridin-7-yl)morpholine] | < 1 nM | –
CO[C@@H](C)c1cccc(-c2ccn(-c3cc(N4CCOCC4)c4sc(CN5CCOCC5)cc4n3)n2)c1 (single isomer, unassigned) [Ex. 212, 4-(5-(3-(3-(1-methoxyethyl)phenyl)-1H-pyrazol-1-yl)-2-(morpholinomethyl)thieno[3,2-b]pyridin-7-yl)morpholine] | – | inhibition at 0.005 µM: 0%
Cc1cccc(-c2ccn(-c3nc(N4CCOCC4)c4sc(C(=O)N5CCN(C)CC5)cc4n3)n2)c1 [Ex. 25, (4-methylpiperazin-1-yl)(4-morpholino-2-(3-(m-tolyl)-1H-pyrazol-1-yl)thieno[3,2-d]pyrimidin-6-yl)methanone] | < 1 nM | –
Cc1cccc(-c2ccn(-c3cc(N4CCOCC4)c4nc(CN5CCC(N(C)C)CC5)[nH]c4n3)n2)c1 [Ex. 28, N,N-dimethyl-1-((7-morpholino-5-(3-(m-tolyl)-1H-pyrazol-1-yl)-3H-imidazo[4,5-b]pyridin-2-yl)methyl)piperidin-4-amine] | < 1 nM | –
Cc1cccc(-c2ccn(-c3cc(N4CCOCC4)c4sc(CN5CCOCC5)cc4n3)n2)c1 [Ex. 66, 4-((7-morpholino-5-(3-(m-tolyl)-1H-pyrazol-1-yl)thieno[3,2-b]pyridin-2-yl)methyl)morpholine] | < 1 nM | –
Cc1cccc(-c2ccn(-c3nc(N4CCOCC4)c4nc(CN5CCC(C(C)(C)O)CC5)n(C)c4n3)n2)c1 [Ex. 62, 2-(1-((9-methyl-6-morpholino-2-(3-(m-tolyl)-1H-pyrazol-1-yl)-9H-purin-8-yl)methyl)piperidin-4-yl)propan-2-ol] | 1 to 10 nM | –
Cc1cccc(-c2ccn(-c3nc(N4CCOCC4)c4nc(CN5CCC(N(C)C)CC5)sc4n3)n2)c1 [Ex. 16, N,N-dimethyl-1-((7-morpholino-5-(3-(m-tolyl)-1H-pyrazol-1-yl)thiazolo[5,4-d]pyrimidin-2-yl)methyl)piperidin-4-amine] | < 1 nM | –
Cc1cccc(-c2ccn(-c3nc(N4CC5CC4CO5)c4sc(CN5CCN(S(C)(=O)=O)CC5)cc4n3)n2)c1 (stereo not drawn) [Ex. 73, 5-(6-((4-(methylsulfonyl)piperazin-1-yl)methyl)-2-(3-(m-tolyl)-1H-pyrazol-1-yl)thieno[3,2-d]pyrimidin-4-yl)-2-oxa-5-azabicyclo[2.2.1]heptane] | 10 to 100 nM | –
Cc1cccc(-c2ccn(-c3nc(N4CCOCC4)c4sc(CN5CCC(N6CCC6)C(F)C5)cc4n3)n2)c1 (stereo not drawn) | < 1 nM | –
Cc1cccc(-c2ccn(-c3cc(N4CCOCC4)c4sc(CN5CCN(S(C)(=O)=O)CC5)cc4n3)n2)c1 [Ex. 68, 4-(2-((4-(methylsulfonyl)piperazin-1-yl)methyl)-5-(3-(m-tolyl)-1H-pyrazol-1-yl)thieno[3,2-b]pyridin-7-yl)morpholine] | < 1 nM | –
Cc1cccc(-c2ccn(-c3cc(N4CCOCC4)c4sc(CN5CCC(C(C)(C)O)CC5)c(C)c4n3)n2)c1 [Ex. 168, 2-(1-((3-Methyl-7-morpholino-5-(3-(m-tolyl)-1H-pyrazol-1-yl)thieno[3,2-b]pyridin-2-yl)methyl)piperidin-4-yl)propan-2-ol] | – | inhibition at 0.003 µM: 23%
Cc1cccc(-c2ccn(-c3nc(N4CCOCC4)c4sc(CN5CCC(N(C)S(C)(=O)=O)CC5)cc4n3)n2)c1 [Ex. 6, N-methyl-N-(1-((4-morpholino-2-(3-(m-tolyl)-1H-pyrazol-1-yl)thieno[3,2-d]pyrimidin-6-yl)methyl)piperidin-4-yl)methanesulfonamide] | – | inhibition at 0.05 µM: 100%
Cc1cccc(-c2ccn(-c3nc(N4CCOCC4)c4sc(CN5CCC(N(C)C)C(F)C5)cc4n3)n2)c1 (stereo not drawn) [Ex. 51, 3-fluoro-N,N-dimethyl-1-((4-morpholino-2-(3-(m-tolyl)-1H-pyrazol-1-yl)thieno[3,2-d]pyrimidin-6-yl)methyl)piperidin-4-amine] | < 1 nM | –
Cc1cccc(-c2ccn(-c3nc(N4CCOCC4)c4nc(C(C)N5CCN(S(C)(=O)=O)CC5)sc4n3)n2)c1 (stereo not drawn) [Ex. 12, 4-(2-(1-(4-(methylsulfonyl)piperazin-1-yl)ethyl)-5-(3-(m-tolyl)-1H-pyrazol-1-yl)thiazolo[5,4-d]pyrimidin-7-yl)morpholine] | 1 to 10 nM | –
Cc1cccc(-c2ccn(-c3nc(N4CCOCC4)c4sc(C(=O)N5CCC(C(C)(C)O)CC5)c(C)c4n3)n2)c1 [Ex. 61, (4-(2-hydroxypropan-2-yl)piperidin-1-yl)(7-methyl-4-morpholino-2-(3-(m-tolyl)-1H-pyrazol-1-yl)thieno[3,2-d]pyrimidin-6-yl)methanone] | < 1 nM | –
Cc1cccc(-c2ccn(-c3nc(N4CCOCC4)c4sc(N5CCN(S(C)(=O)=O)CC5)cc4n3)n2)c1 [Ex. 165, 4-(6-(4-(methylsulfonyl)piperazin-1-yl)-2-(3-(m-tolyl)-1H-pyrazol-1-yl)thieno[3,2-d]pyrimidin-4-yl)morpholine] | – | inhibition at 0.003 µM: 22%

Now from value to compound, other results behind:

IC50 | SMILES | also measured
< 1 nM | Cc1cccc(-c2ccn(-c3cc(N4CCOCC4)c4sc(CN5CCN(C)CC5)cc4n3)n2)c1 [Ex. 67] | –
< 1 nM | Cc1cccc(-c2ccn(-c3nc(N4CCOCC4)c4nc(CN5CC(N6CCCC6)C5)[nH]c4n3)n2)c1 [Ex. 36, 4-(8-((3-(pyrrolidin-1-yl)azetidin-1-yl)methyl)-2-(3-(m-tolyl)-1H-pyrazol-1-yl)-9H-purin-6-yl)morpholine] | –
1 to 10 nM | Cc1cccc(-c2ccn(-c3cc(N4CCOCC4)c4nc(CO)n(C)c4n3)n2)c1 [Ex. 75, (3-methyl-7-morpholino-5-(3-(m-tolyl)-11H-pyrazol-1-yl)-3H-imidazo[4,5-b]pyridin-2-yl)methanol] | –
< 1 nM | Cc1cccc(-c2ccn(-c3cc(N4CCOCC4)c4nc(CN5CCC(C(C)(C)O)CC5)n(C)c4n3)n2)c1 [Ex. 76, 2-(1-((3-methyl-7-morpholino-5-(3-(m-tolyl)-1H-pyrazol-1-yl)-3H-imidazo[4,5-b]pyridin-2-yl)methyl)piperidin-4-yl)propan-2-ol] | –
1 to 10 nM | Cc1cccc(-c2ccn(-c3nc(N4CCOCC4)c4sc(CN5CC(C6CCOCC6)C5)c(C)c4n3)n2)c1 [Ex. 63, 4-(7-methyl-6-((3-(tetrahydro-2H-pyran-4-yl)azetidin-1-yl)methyl)-2-(3-(m-tolyl)-1H-pyrazol-1-yl)thieno[3,2-d]pyrimidin-4-yl)morpholine] | –
< 1 nM | Cc1cccc(-c2ccn(-c3nc(N4CCOCC4)c4nc(CN5CCC(N6CCC6)C(F)C5)sc4n3)n2)c1 (stereo not drawn) [Ex. 47, 4-(2-((4-(azetidin-1-yl)-3-fluoropiperidin-1-yl)methyl)-5-(3-(m-tolyl)-1H-pyrazol-1-yl)thiazolo[5,4-d]pyrimidin-7-yl)morpholine] | –
< 1 nM | Cc1cccc(-c2ccn(-c3cc(N4CCOCC4)c4nc(CN5CC[C@@H](N(C)C)C5)[nH]c4n3)n2)c1 [Ex. 41, (R)—N,N-dimethyl-1-((7-morpholino-5-(3-(m-tolyl)-1H-pyrazol-1-yl)-3H-imidazo[4,5-b]pyridin-2-yl)methyl)pyrrolidin-3-amine] | –
< 1 nM | Cc1cccc(-c2ccn(-c3nc(N4CCOCC4)c4sc(CN5CCOCC5)cc4n3)n2)c1 [Ex. 29, 4-((4-morpholino-2-(3-(m-tolyl)-1H-pyrazol-1-yl)thieno[3,2-d]pyrimidin-6-yl)methyl)morpholine] | –
< 1 nM | Cc1cccc(-c2ccn(-c3nc(N4CCOCC4)c4sc(C(=O)N5CC[C@H](N(C)C)C5)cc4n3)n2)c1 [Ex. 24, (S)-(3-(dimethylamino)pyrrolidin-1-yl)(4-morpholino-2-(3-(m-tolyl)-1H-pyrazol-1-yl)thieno[3,2-d]pyrimidin-6-yl)methanone] | –

From US20230265103A1 (TME Therapeutics LLC, priority 2021, published 2023)
